Measured values reported in ChEMBL document CHEMBL1201862, “PubChem BioAssay data set” (2004).
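Following 48 hours of exposure in 96-well plates, responses at five concentrations were used to interpolate endpoints linearly. Here, GI50 denotes the concentration required for 50% inhibition of growth.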 The source made the active and inactive calls. No stated cut-off is given here; in the data, active = GI50 up to about 1.1 µM and inactive = higher.

Experiments:
Assay in all cases: DTP human tumour cell line panel, 48 h
[1] = tested on: NCI-H23
[2] = tested on: SK-MEL-28
[3] = tested on: SF-539
[4] = tested on: SK-OV-3
[5] = tested on: SF-268
[6] = tested on: K562
[7] = tested on: RPMI-8226
[8] = tested on: SN12C
[9] = tested on: HT-29
[10] = tested on: U-251
[11] = tested on: SK-MEL-2
[12] = tested on: M14
[13] = tested on: MCF7
[14] = tested on: A498
[15] = tested on: SW-620
[16] = tested on: PC-3
[17] = tested on: HCT-116
[18] = tested on: OVCAR-4
[19] = tested on: UO-31

| Compound | GI50 [1] | GI50 [2] | GI50 [3] | GI50 [4] | GI50 [5] | GI50 [6] | GI50 [7] | GI50 [8] | GI50 [9] | GI50 [10] | GI50 [11] | GI50 [12] | GI50 [13] | GI50 [14] | GI50 [15] | GI50 [16] | GI50 [17] | GI50 [18] | GI50 [19] |
| --- | --- | --- | --- | --- | --- | --- | --- | --- | --- | --- | --- | --- | --- | --- | --- | --- | --- | --- | --- |
| S=C(S)NCCCn1ccnc1 | > 100 µM (inactive) | > 100 µM (inactive) | > 100 µM (inactive) | > 100 µM (inactive) | > 100 µM (inactive) | > 100 µM (inactive) | > 100 µM (inactive) | > 100 µM (inactive) | > 100 µM (inactive) | > 100 µM (inactive) | > 100 µM (inactive) | > 100 µM (inactive) | > 100 µM (inactive) | > 100 µM (inactive) | > 100 µM (inactive) | > 100 µM (inactive) | > 100 µM (inactive) | > 100 µM (inactive) | > 100 µM (inactive) |
| COc1ccc(CN(CCc2c[nH]c3ccccc23)Cc2ccc(OC)cc2)cc1 | 2.31 µM (inactive) | 3.86 µM (inactive) | 1.56 µM (inactive) | 5.46 µM (inactive) | 4.39 µM (inactive) | 4.75 µM (inactive) | 3.82 µM (inactive) | 0.968 µM (active) | 1.29 µM (inactive) | 5.81 µM (inactive) | 3.9 µM (inactive) | 2.8 µM (inactive) | 3.47 µM (inactive) | 4.24 µM (inactive) | 4.19 µM (inactive) | 3.66 µM (inactive) | 0.83 µM (active) | 3.88 µM (inactive) | 1.47 µM (inactive) |
| O=C1c2cc([N+](=O)[O-])sc2C(=O)c2ccsc21 | 0.352 µM (active) | 0.283 µM (active) | 0.365 µM (active) | 1.58 µM (inactive) | 0.361 µM (active) | 0.0216 µM (active) | 0.206 µM (active) | 0.327 µM (active) | 0.665 µM (active) | 0.203 µM (active) | 1.06 µM (active) | 0.258 µM (active) | 0.213 µM (active) | 2.14 µM (inactive) | 0.245 µM (active) | 0.532 µM (active) | 0.293 µM (active) | 0.48 µM (active) | 1.2 µM (inactive) |
| CN(C)c1nncc2[nH]nnc12 | > 100 µM (inactive) | > 100 µM (inactive) | > 100 µM (inactive) | > 100 µM (inactive) |  | > 100 µM (inactive) | > 100 µM (inactive) | > 100 µM (inactive) | > 100 µM (inactive) | > 100 µM (inactive) | > 100 µM (inactive) | > 100 µM (inactive) | > 100 µM (inactive) | > 100 µM (inactive) | > 100 µM (inactive) | > 100 µM (inactive) | > 100 µM (inactive) | > 100 µM (inactive) | > 100 µM (inactive) |
| COC(=O)c1c(O)c(C#N)c2[nH]c3ccccc3n2c1=O | > 100 µM (inactive) |  | > 100 µM (inactive) | > 100 µM (inactive) | > 100 µM (inactive) | > 100 µM (inactive) | > 100 µM (inactive) | > 100 µM (inactive) | > 100 µM (inactive) | > 100 µM (inactive) | > 100 µM (inactive) | > 100 µM (inactive) | > 100 µM (inactive) | > 100 µM (inactive) | > 100 µM (inactive) | > 100 µM (inactive) | > 100 µM (inactive) | > 100 µM (inactive) | > 100 µM (inactive) |
| COc1cc(NC(C)=O)ccc1C(=O)NN1C(=O)/C(=C/c2ccco2)N=C1c1ccccc1 | > 50 µM (inactive) | 28.6 µM (inactive) | 33.4 µM (inactive) | > 50 µM (inactive) | > 50 µM (inactive) | 20.5 µM (inactive) | 13.5 µM (inactive) | > 50 µM (inactive) | 36.9 µM (inactive) |  | 14.3 µM (inactive) | 38.2 µM (inactive) | 34.3 µM (inactive) | 15.4 µM (inactive) | 27.7 µM (inactive) | > 50 µM (inactive) | 30.8 µM (inactive) | 49.5 µM (inactive) | > 50 µM (inactive) |
| Cc1ccc(S(=O)(=O)N2CCC(=O)c3cc(Br)ccc32)cc1 | 19.2 µM (inactive) | 24.7 µM (inactive) | 5 µM (inactive) | 20.5 µM (inactive) | 18.2 µM (inactive) | 4.57 µM (inactive) | 12.2 µM (inactive) | 12.9 µM (inactive) | 6.25 µM (inactive) | 3.72 µM (inactive) | 10.3 µM (inactive) | 5.06 µM (inactive) | 4.45 µM (inactive) | 15 µM (inactive) | 6.04 µM (inactive) | 6.01 µM (inactive) | 4.72 µM (inactive) | 16.8 µM (inactive) | 10.9 µM (inactive) |
| NCCNC(=O)CN(CC(=O)O)C1CCCCC1N(CC(=O)O)CC(=O)O (stereo not given) | > 100 µM (inactive) | > 100 µM (inactive) | > 100 µM (inactive) | > 100 µM (inactive) | 24.4 µM (inactive) | > 100 µM (inactive) | > 10 µM (inactive) | > 100 µM (inactive) | > 100 µM (inactive) | > 100 µM (inactive) | > 100 µM (inactive) | > 100 µM (inactive) | > 100 µM (inactive) | > 100 µM (inactive) | > 100 µM (inactive) | > 100 µM (inactive) | > 100 µM (inactive) | > 100 µM (inactive) | > 100 µM (inactive) |
| COc1ccc(N2C(=O)/C(=C/c3ccc(N(CCC#N)CCC#N)cc3)N=C2c2ccccc2)cc1 |  | > 100 µM (inactive) | > 100 µM (inactive) | > 100 µM (inactive) | > 100 µM (inactive) | > 100 µM (inactive) | > 100 µM (inactive) | > 100 µM (inactive) | > 100 µM (inactive) | > 100 µM (inactive) | > 100 µM (inactive) | > 100 µM (inactive) | > 100 µM (inactive) | > 100 µM (inactive) | > 100 µM (inactive) | > 100 µM (inactive) | > 100 µM (inactive) | > 100 µM (inactive) | > 100 µM (inactive) |
| CN1C(=O)C23CCCC2CC1(c1ccccc1)S3 (stereo not given) | > 100 µM (inactive) | > 100 µM (inactive) | > 100 µM (inactive) | > 100 µM (inactive) | > 100 µM (inactive) | > 100 µM (inactive) | > 100 µM (inactive) | > 100 µM (inactive) | > 100 µM (inactive) | > 100 µM (inactive) | 49.7 µM (inactive) | > 100 µM (inactive) | > 100 µM (inactive) | > 100 µM (inactive) | > 100 µM (inactive) | 45.2 µM (inactive) | > 100 µM (inactive) | 56.1 µM (inactive) | > 100 µM (inactive) |
| Nc1c(-c2cccc3ccccc23)c2ccc([N+](=O)[O-])cc2c(=O)n1-c1nc2ccccc2s1 | 2.11 µM (inactive) | 14.1 µM (inactive) | 2.2 µM (inactive) | 2.75 µM (inactive) | 3.18 µM (inactive) | 6.93 µM (inactive) | 1.02 µM (active) | 6.27 µM (inactive) | 5.02 µM (inactive) | 3.71 µM (inactive) | 3.82 µM (inactive) | 11.7 µM (inactive) | 1.5 µM (inactive) | 7.66 µM (inactive) | 11.2 µM (inactive) | 4.84 µM (inactive) | 5.13 µM (inactive) | 9.82 µM (inactive) | 4.1 µM (inactive) |
| COC(=O)C(CCC1CC(OC)N(C(=O)OCc2ccccc2)C1)/N=C/c1ccccc1 (stereo not given) | 76 µM (inactive) | > 100 µM (inactive) | > 100 µM (inactive) | > 100 µM (inactive) | > 100 µM (inactive) | 45.2 µM (inactive) | 27.6 µM (inactive) | > 100 µM (inactive) | 60.5 µM (inactive) | > 100 µM (inactive) | 26.1 µM (inactive) | 54.7 µM (inactive) | 60 µM (inactive) | > 100 µM (inactive) | > 100 µM (inactive) | 45.1 µM (inactive) | 55.3 µM (inactive) | 62.1 µM (inactive) | 91.6 µM (inactive) |
| NC1C/C(=N\O)c2c(Cl)sc(Cl)c21 (stereo not given) | 17.1 µM (inactive) | 19.3 µM (inactive) | 8.95 µM (inactive) | > 100 µM (inactive) | 29.4 µM (inactive) | 43.2 µM (inactive) | 10.2 µM (inactive) | 19.1 µM (inactive) | 23.1 µM (inactive) |  | 19.7 µM (inactive) | 16.8 µM (inactive) | 11 µM (inactive) | 20.2 µM (inactive) | 17.9 µM (inactive) | 20.8 µM (inactive) | 3.96 µM (inactive) | 17.3 µM (inactive) | 17.4 µM (inactive) |
| COc1cc2oc(=O)ccc2cc1C(=O)CC(C)C | > 100 µM (inactive) | > 100 µM (inactive) | > 100 µM (inactive) | > 100 µM (inactive) | 99.3 µM (inactive) | > 100 µM (inactive) | > 100 µM (inactive) | > 100 µM (inactive) | > 100 µM (inactive) | > 100 µM (inactive) | > 100 µM (inactive) | > 100 µM (inactive) | 73.8 µM (inactive) | > 100 µM (inactive) | > 100 µM (inactive) | > 100 µM (inactive) | > 100 µM (inactive) | 71.1 µM (inactive) | > 100 µM (inactive) |
| C/C(=N\c1cccc(Cl)c1)c1ccncc1 | > 100 µM (inactive) | > 100 µM (inactive) | > 100 µM (inactive) | > 100 µM (inactive) | 14.6 µM (inactive) | > 100 µM (inactive) | > 100 µM (inactive) | > 100 µM (inactive) | > 100 µM (inactive) | > 100 µM (inactive) | > 100 µM (inactive) | > 100 µM (inactive) | > 100 µM (inactive) | > 100 µM (inactive) | > 100 µM (inactive) | > 100 µM (inactive) | > 100 µM (inactive) | > 100 µM (inactive) | > 100 µM (inactive) |
